What was measured:
[1] = tested on: Acinetobacter strains; assay: MIC assays of Example 3, Tables 3 and 4 taken together; type: cell-based, Acinetobacter baumannii and Acinetobacter Iwoffii; settings: in one Acinetobacter strain or another
Method: (§1) MIC assays as described in Example 1 were conducted using the following Acinetobacter strains, antibiotics and concentrations of OligoCF-5/20 as described in Tables 3 and 4.
(§2) • V19* 7789 Acinetobacter baumannii • V20* 8065 Acinetobacter Iwoffii MDR Strains • V4* MDR ACB (Libya) Acinetobacter baumannii • V9* (Egypt) Acinetobacter baumannii • V10* (Egypt) Acinetobacter Iwoffii • V22* 6056 Acinetobacter Iwoffii
Further MIC assays were conducted with the various strains and antibiotics recited in Table 4 using the following protocol.

[2] = tested on: Multidrug resistant Acinetobacter baumannii isolated from a source in Libya; assay: Minimum Inhibitory Concentration assay (96-well, CAMHB), Examples 1 and 2
Method: Antibiotics were diluted in cation-adjusted Mueller-Hinton broth (CAMHB) or CAMHB with G-fragments (Oligo CF-5/20 90-95% G residues) at 2%, 6% or 10%.
Bacterial cultures at 0.5 McFarland standard were diluted ten-fold in CAMHB and 5 μl added to the microtiter plates containing the antibiotic serial dilutions. Plates were wrapped in parafilm and incubated at 37° C. for 16-20 hours. MIC values for each antibiotic were determined as the lowest concentration at which there was no visible growth.

[3] = tested on: Staphylococcus aureus NCTC 6571 MIC CONTROL STRAIN (Oxford Staph.); assay: Minimum Inhibitory Concentration assay (96-well, CAMHB), Example 1; type: cell-based; settings: S. Aur
[4] = tested on: Acinetobacter baumannii strains V9, V19; assay: MIC assays as described in Example 1, Example 3 (Table 3); type: cell-based; settings: strain V19
Method: as §1, §2

[5] = A. bau, +2% G (G-fragments Oligo CF-5/20)
[6] = A. bau, +6% G (G-fragments Oligo CF-5/20)
[7] = A. bau, +10% G (G-fragments Oligo CF-5/20)
[8] = +2% G (G-fragments Oligo CF-5/20)
[9] = +6% G (G-fragments Oligo CF-5/20)
[10] = +10% G (G-fragments Oligo CF-5/20)

For `CC[C@H]1OC(=O)[C@H](C)[C@@H](O[C@H]2C[C@@](C)(OC)[C@@H](O)[C@H](C)O2)[C@H](C)[C@@H](O[C@@H]2O[C@H](C)C[C@H](N(C)C)[C@H]2O)[C@](C)(O)C[C@@H](C)CN(C)[C@H](C)[C@@H](O)[C@]1(C)O` [azithromycin], the “effect of increasing concentrations of OligoCF-5/20 (0-10%) on MIC values (Tables 3 and 4)” value [1] was “decreases MIC values”, the “inhibition of growth by azithromycin combined with G-fragments” value ([2]; 4 μg/ml azithromycin and 2% or more G-fragments) was “completely inhibited” and the “MIC value, Ceftazidime with azithromycin at 4 μg/ml” value (“MIC value, Ceftazidime … at 4 μg/ml” below) [2, 5] was under 4 μg/ml Az. For the same compound, the “MIC value, Ceftazidime with azithromycin at 8 μg/ml” value (shortened to “MIC value, Ceftazidime … at 8 μg/ml”) [2, 5] was under 8 μg/ml Az, the “MIC value, Ciprofloxacin with azithromycin at 8 μg/ml” value (“MIC value, Ciprofloxacin … at 8 μg/ml” for short) [2, 5] was under 8 μg/ml Az and the “MIC value, Ciprofloxacin with azithromycin at 4 μg/ml: azithromycin part of the inhibitory combination” value ([2]; A. bau, +2% G (G-fragments Oligo CF-5/20), together with 64 Cpr) was 4 µg/mL. For the same compound, the “MIC value, Ceftazidime … at 4 μg/ml” value [2, 6] was under 4 μg/ml Az, the “MIC value, Ceftazidime … at 8 μg/ml” value [2, 6] was under 8 μg/ml Az and the “MIC value, Ciprofloxacin with azithromycin at 4 μg/ml” value [2, 6] was under 4 μg/ml Az. The “MIC value, Ciprofloxacin … at 8 μg/ml” value [2, 6] was under 8 μg/ml Az, the “MIC value, Ceftazidime … at 4 μg/ml” value [2, 7] was under 4 μg/ml Az and the “MIC value, Ceftazidime … at 8 μg/ml” value [2, 7] was under 8 μg/ml Az. For the same compound, the “MIC value, Ciprofloxacin with azithromycin at 4 μg/ml” value [2, 7] was under 4 μg/ml Az, the “MIC value, Ciprofloxacin … at 8 μg/ml” value [2, 7] was under 8 μg/ml Az and the “effect of OligoCF-5/20 on the MIC value for azithromycin” value ([2]; Acinetobacter organism, azithromycin 8 or 4 μg/ml) was “greatly reduces”. For the same compound, the “inhibition of growth by azithromycin in the absence of G-fragments” value ([2]; azithromycin at 4 μg/ml and at 8 μg/ml, no G-fragments) was “not capable of inhibiting growth”, the “MIC value, Ceftazidime … at 4 μg/ml” value ([3]; 0 G (no G-fragments)) was under 4 μg/ml Az and the “MIC value, Ceftazidime … at 8 μg/ml” value ([3]; 0 G (no G-fragments)) was under 8 μg/ml Az. For the same compound, the “MIC value, Ciprofloxacin with azithromycin at 4 μg/ml” value ([3]; 0 G (no G-fragments)) was under 4 μg/ml Az, the “MIC value, Ciprofloxacin … at 8 μg/ml” value ([3]; 0 G (no G-fragments)) was under 8 μg/ml Az and the “MIC value, Ceftazidime … at 4 μg/ml” value [3, 8] was under 4 μg/ml Az. The “MIC value, Ceftazidime … at 8 μg/ml” value [3, 8] was under 8 μg/ml Az, the “MIC value, Ciprofloxacin with azithromycin at 4 μg/ml” value [3, 8] was under 4 μg/ml Az and the “MIC value, Ciprofloxacin … at 8 μg/ml” value [3, 8] was under 8 μg/ml Az. For the same compound, the “MIC value, Ceftazidime … at 4 μg/ml” value [3, 9] was under 4 μg/ml Az, the “MIC value, Ceftazidime … at 8 μg/ml” value [3, 9] was under 8 μg/ml Az and the “MIC value, Ciprofloxacin with azithromycin at 4 μg/ml” value [3, 9] was under 4 μg/ml Az. For the same compound, the “MIC value, Ciprofloxacin … at 8 μg/ml” value [3, 9] was under 8 μg/ml Az, the “MIC value, Ceftazidime … at 4 μg/ml” value [3, 10] was under 4 μg/ml Az and the “MIC value, Ceftazidime … at 8 μg/ml” value [3, 10] was under 8 μg/ml Az. For the same compound, the “MIC value, Ciprofloxacin with azithromycin at 4 μg/ml” value [3, 10] was under 4 μg/ml Az and the “MIC value, Ciprofloxacin … at 8 μg/ml” value [3, 10] was under 8 μg/ml Az.
`C[C@@H](O)[C@H]1C(=O)N2C(C(=O)O)=C(SCCN=CN)C[C@H]12` [imipenem] was tested, and the “effect of increasing concentrations of OligoCF-5/20 on MIC values (Table 3)” value [4] was “no effect”.
With `CC[C@H]1OC(=O)[C@H](C)[C@@H](O[C@H]2C[C@@](C)(OC)[C@@H](O)[C@H](C)O2)[C@H](C)[C@@H](O[C@@H]2O[C@H](C)C[C@H](N(C)C)[C@H]2O)[C@](C)(O)C[C@@H](C)/C(=N\OCOCCOC)[C@H](C)[C@@H](O)[C@]1(C)O` [roxithromycin] the “effect of increasing concentrations of OligoCF-5/20 (0-10%) on MIC values (Tables 3 and 4)” value [1] was “decreases MIC values”.

Source: patent US8815831B2, “Treatment of Acinetobacter with alginate oligomers and antibiotics” (priority 2009, dated 2014)
